In patent US12144795B2, “Cannabidiol compositions having modified cannabinoid profiles” (priority 2018, dated 2024):
Where two headings read alike, the source gives them in different places.

How the values were obtained:
[1] = Stress stability tests of CBD (acidic, alkaline, oxidative, light, heat, humidity; UPLC, LC-MS, PDA-UV); type: physicochemical
Protocol: Cannabidiol samples obtained by Protocol 1 were subjected to acidic, alkaline, and oxidizing conditions in order to achieve a degradation of at least 3% or a change in appearance. The impact of light, heat, and humidity on the stability of the drug substance was investigated. The assay and purity of samples were analyzed by UPLC. The identity of unknown impurities was examined by LC-MS. The peak purity of cannabidiol after exposure to stress conditions was investigated by comparing the PDA-UV spectrum (photodiode array-ultraviolet) of cannabidiol with the spectrum of the unstressed sample and in addition by LC-MS analysis of the cannabidiol peak. The assay of the unstressed sample in FIG. 15A and FIG. 15B was used as a reference to calculate the extent of degradation of CBD under the representative stress conditions: Degradation of CBD=(1−[assay of stressed sample]/[assay unstressed sample])*100% […]
In a 20 ml GC headspace vial, 150 mg of CBD was suspended in 8 mL of 0.1 M sodium hydroxide and heated to T=80° C. for 2 h, 4 h and 6 h, respectively. […]

[2] = Evaporative crystallization from solvent mixtures, form by HT-XRPD before and after AAC; type: physicochemical; conditions: Acetonitrile / Water (50/50, v/v)
Protocol: Recrystallization experiments were conducted to screen for potential CBD polymorphs and evaluate the ability of the recrystallized CBD to expel impurities. The following recrystallization methods were undertaken: • evaporative crystallization from solvent mixtures; • antisolvent crystallization; • cooling crystallization; • single solvent drop grinding; • crystallization by crash-cooling; • vapor-diffusion-into-solution crystallization; and • crystallization by liquid diffusion. In each method, the starting material consisted of crystallized CBD of form A. Evaporative Crystallization from Solvent Mixtures
Without wishing to be bound by theory, the general principle behind evaporative crystallization using solvent anti-solvent mixtures is that the solvent evaporates, first causing the API to precipitate to some extent, and this material then acts as a seed, when the anti-solvent is evaporated. The first evaporation step is slow and is followed by a faster final evaporation phase. All crystalline samples were Form A both before and after the solids were exposed to accelerated ageing conditions. An oil-like substance was obtained from an acetonitrile/water solvent mixture that could not be analyzed by XRPD; therefore, this sample was not exposed to accelerated aging conditions.

[3] = Anti-solvent crystallization, solid form by HT-XRPD of precipitates and evaporated mother liquors, before and after AAC; type: physicochemical
Protocol: For the anti-solvent crystallization experiments, clear solutions of CBD of approximately 60 mg/mL were prepared. Briefly, 1 volume of cannabidiol solution was added to 4 volumes of anti-solvent. If solids were precipitated, they were collected by centrifugation. The solid was analyzed by XRPD after being dried under ambient conditions and following drying under deep vacuum. The mother liquors were allowed to evaporate until completely dry and the remaining solids analyzed as well. All solids were analyzed by XRPD before and after exposure to accelerated aging conditions (40° C./75% RH) for two days.
Solids precipitated immediately from the combination of methanol with water. To facilitate precipitation, the samples were placed at 5° C. for 24 hours. […] When no XRPD record was generated, the field is defined as “Not Applicable” (N/A).

[4] = Crystallization by single solvent drop grinding, HT-XRPD before and after AAC; type: physicochemical
Protocol: For the grinding experiments, 40 mg cannabidiol was placed in a stainless steel container with 10 μL solvent and two steel beads. The vials were shaken for 1 hour at 30 Hz, after which the solids were collected for XRPD analysis. All of the samples were classified as Form A based on HT-XRPD analysis.

[5] = type: physicochemical
[6] = solvent 1,2-Dimethoxyethane, anti-solvent Decane
[7] = solvent Acetone, anti-solvent 2,2,4-Trimethylepentane
[8] = solvent Acetonitrile, anti-solvent Decane
[9] = solvent Ethanol, anti-solvent Decane
[10] = solvent Ethyl acetate, anti-solvent 2,2,4-Trimethylepentane
[11] = solvent Isopropyl acetate, anti-solvent 2,2,4-Trimethylepentane
[12] = solvent Toluene, anti-solvent Decane
[13] = 1 month Accelerated 40° C./75% RH
[14] = 1.5 months Accelerated 40° C./75% RH
[15] = 2 months Accelerated 40° C./75% RH
[16] = 3 months Accelerated 40° C./75% RH
[17] = 5 months Accelerated 40° C./75% RH
[18] = 6 months Accelerated 40° C./75% RH

C=C(C)[C@@H]1CCC(C)=C[C@H]1c1c(O)cc(CCCCC)cc1O [CBD, (1′R,2′R)-5′-methyl-4-pentyl-2′-(prop-1-en-2-yl)-1′,2′,3′,4′-tetrahydro-[1,1′-biphenyl]-2,6-diol]
Appearance after stress ([1]; 0.1 M hydrochloric acid, 80° C., 2 h, 4 h and 6 h): suspension of yellowish melted CBD in a clear colorless aqueous solution
Appearance after stress ([1]; 0.1 M sodium hydroxide, 80° C., 2 h, 4 h and 6 h): suspension of yellowish melted CBD in a violet aqueous solution
Appearance after stress ([1]; 24 h at 75% r.h.): did not change its appearance
Proposed main degradation products(s) ([1]; Acidic, 80° C.): D9-THC
Degradation of CBD ([1]; Acidic, 6 h, 80° C. (0.1 M hydrochloric acid)): 4%
Proposed main degradation products(s) ([1]; Alkaline stress): several isomers of CBQ
Degradation of CBD ([1]; Alkaline stress, stock solution at the time of the LC-MS analysis): > 80%
Proposed main degradation products(s) ([1]; Heat, 100° C. for 24 h): Hydroxy-CBD and Hydroxy-CBQ
Degradation of CBD ([1]; Heat, 24 h, 100° C.): 1%
Proposed main degradation products(s) ([1]; Humidity, 24 h, 24° C.): No prominent degradation product
Degradation of CBD ([1]; Humidity, 24 h, 24° C. (75% r.h.)): 0%
Degradation of CBD ([1]; Light, 24 h 24° C.): 1%
Proposed main degradation products(s) ([1]; Light, 24 h 24° C.): No prominent degradation product
Proposed main degradation products(s) ([1]; Oxidative stress (H2O2)): Hydroxy-CBD (CBD-OH)
Degradation of CBD ([1]; Oxidative, 6 h 80° C. (hydrogen peroxide 0.3% w/w)): 3%
Degradation of CBD ([1]; elevated temperatures lower than 100° C.): no significant degradation
Appearance after stress ([1]; heated to 50° C. and 60° C. for 1 hour): turned slightly yellow but did not change their physical condition
Appearance after stress ([1]; heated to 70° C. for one hour): partially melted
Appearance after stress ([1]; heated to 80° C. or higher): fully melted and exhibited a yellow color
Appearance after stress ([1]; hydrogen peroxide (0.3% w/w), 80° C., 2 h, 4 h and 6 h): suspension of yellowish melted CBD in a clear colorless aqueous solution
Appearance after stress ([1]; irradiated with light 24 h, 24° C.): turned slightly yellow
Form by HT-XRPD Before AAC [2]: Oily
Solid form by HT-XRPD Ambient After AAC ([3]; Dichloromethane / 2,2,4-Trimethylepentane, AS:S ratio 4:1): A low yield
AS:S ratio 4:1 Precipitation? [3, 6]: No
Form (evap. ML) [3, 6]: Oily
AS:S ratio 4:1 Precipitation? ([3]; solvent 1,2-Dimethoxyethane, anti-solvent Water): No
AS:S ratio 4:1 Precipitation? ([3]; solvent 1,4-Dioxane, anti-solvent 2,2,4-Trimethylepentane): No
AS:S ratio 4:1 Precipitation? ([3]; solvent 1,4-Dioxane, anti-solvent Water): No
AS:S ratio 4:1 Precipitation? ([3]; solvent 2-Butanone, anti-solvent Water): No
AS:S ratio 4:1 Precipitation? [3, 7]: No
Form (evap. ML) [3, 7]: Oily
AS:S ratio 4:1 Precipitation? [3, 8]: No
Form (evap. ML) [3, 8]: Oily
AS:S ratio 4:1 Precipitation? ([3]; solvent Dichloromethane, anti-solvent 2,2,4-Trimethylepentane): No
AS:S ratio 4:1 Precipitation? [3, 9]: No
Form (evap. ML) [3, 9]: Oily
AS:S ratio 4:1 Precipitation? [3, 10]: No
Form (evap. ML) [3, 10]: A low
Form (evap. ML) after AAC [3, 10]: A low
AS:S ratio 4:1 Precipitation? [3, 11]: No
Form (evap. ML) [3, 11]: Oily
AS:S ratio 4:1 Precipitation? ([3]; solvent Methanol, anti-solvent Water): Yes
AS:S ratio 4:1 Precipitation? ([3]; solvent Tetrahydrofuran, anti-solvent Decane): No
AS:S ratio 4:1 Precipitation? ([3]; solvent Tetrahydrofuran, anti-solvent Water): No
AS:S ratio 4:1 Precipitation? [3, 12]: No
Form (evap. ML) [3, 12]: Oily
Effect of accelerated aging conditions ([4]; AAC for two days): did not lead to any physical changes
Form by HT-XRPD analysis ([4]; ground 1 hour at 30 Hz with 10 μL solvent, all samples): Form A
Chromatographic Purity: 4-Monobromo-cannabidiol ([5]; 0 month): <0.03%
Chromatographic Purity: Individual unspecified impurity ([5]; 0 month): <0.03%
Chromatographic Purity: Olivetol ([5]; 0 month): <0.03%
Chromatographic Purity: Sum of impurities ([5]; 0 month): <0.05%
Chromatographic Purity: 4-Monobromo-cannabidiol ([5]; 1 month 5° C.): <0.03%
Chromatographic Purity: Individual unspecified impurity ([5]; 1 month 5° C.): <0.03%
Chromatographic Purity: Olivetol ([5]; 1 month 5° C.): <0.03%
Chromatographic Purity: Sum of impurities ([5]; 1 month 5° C.): <0.05%
Chromatographic Purity: 4-Monobromo-cannabidiol ([5]; 1 month 25° C./60% RH): <0.03%
Chromatographic Purity: Individual unspecified impurity ([5]; 1 month 25° C./60% RH): <0.03%
Chromatographic Purity: Olivetol ([5]; 1 month 25° C./60% RH): <0.03%
Chromatographic Purity: Sum of impurities ([5]; 1 month 25° C./60% RH): <0.05%
Chromatographic Purity: 4-Monobromo-cannabidiol [5, 13]: <0.03%
Chromatographic Purity: Individual unspecified impurity [5, 13]: <0.03%
Chromatographic Purity: Olivetol [5, 13]: <0.03%
Chromatographic Purity: Sum of impurities [5, 13]: <0.05%
Chromatographic Purity: 4-Monobromo-cannabidiol ([5]; 1.5 months 25° C./60% RH): <0.03%
Chromatographic Purity: Individual unspecified impurity ([5]; 1.5 months 25° C./60% RH): <0.03%
Chromatographic Purity: Olivetol ([5]; 1.5 months 25° C./60% RH): <0.03%
Chromatographic Purity: Sum of impurities ([5]; 1.5 months 25° C./60% RH): <0.05%
Chromatographic Purity: 4-Monobromo-cannabidiol [5, 14]: <0.03%
Chromatographic Purity: Individual unspecified impurity [5, 14]: <0.03%
Chromatographic Purity: Olivetol [5, 14]: <0.03%
Chromatographic Purity: Sum of impurities [5, 14]: <0.05%
Chromatographic Purity: 4-Monobromo-cannabidiol [5, 15]: <0.03%
Chromatographic Purity: Individual unspecified impurity [5, 15]: <0.03%
Chromatographic Purity: Olivetol [5, 15]: <0.03%
Chromatographic Purity: Sum of impurities [5, 15]: <0.05%
Chromatographic Purity: 4-Monobromo-cannabidiol [5, 16]: <0.03%
Chromatographic Purity: Individual unspecified impurity [5, 16]: <0.03%
Chromatographic Purity: Olivetol [5, 16]: <0.03%
Chromatographic Purity: Sum of impurities [5, 16]: <0.05%
Chromatographic Purity: 4-Monobromo-cannabidiol [5, 17]: <0.03%
Chromatographic Purity: Individual unspecified impurity [5, 17]: <0.03%
Chromatographic Purity: Olivetol [5, 17]: <0.03%
Chromatographic Purity: Sum of impurities [5, 17]: <0.05%
Chromatographic Purity: 4-Monobromo-cannabidiol ([5]; 6 months 25° C./60% RH): <0.03%
Chromatographic Purity: Individual unspecified impurity ([5]; 6 months 25° C./60% RH): <0.03%
Chromatographic Purity: Olivetol ([5]; 6 months 25° C./60% RH): <0.03%
Chromatographic Purity: Sum of impurities ([5]; 6 months 25° C./60% RH): <0.05%
Chromatographic Purity: 4-Monobromo-cannabidiol [5, 18]: <0.03%
Chromatographic Purity: Individual unspecified impurity [5, 18]: <0.03%
Chromatographic Purity: Olivetol [5, 18]: <0.03%
Chromatographic Purity: Sum of impurities [5, 18]: <0.05%
